BindingDB's records for doi:10.1021/jm00099a027 (Smithkline Beecham Pharmaceuticals, 1992)
Bridge positions count the residues as written; N and C are the ends. Square brackets hold non-standard residues; d marks the D form. Peptide text beside a SMILES is read from it. NMeR = CN[C@@H](CCCNC(=N)N)C(=O)O

Assay: Inhibition of ADP-induced platelet aggregation in canine platelet-rich plasma

IC50 [µM] | SMILES
0.72 | CC(=O)N(C)C(CCCNC(=N)N)C(=O)NCC1=CC(CC(=O)O)C(=O)N(c2ccccc2)CC1 (configuration not stated)
0.36 | CC(=O)N[C@H]1CSSC[C@@H](C(N)=O)NC(=O)[C@H](CC(=O)O)NC(=O)CNC(=O)[C@H](CCCN=C(N)N)N(C)C1=O [SKF-106760] (Ac-C[NMeR]GDC-NH2; disulfide 1-5)
